Assay results from patent US4073908A, “8-Amino-theophylline derivatives and therapeutic applications thereof” (Laboratoire le Brun S.A., priority 1975, dated 1978).

Experiments:
Format in all cases: in vivo
Acute toxicity in mice = conditions: mouse, in vivo, single administration
Description: (§1) Acute toxicity in mice by the sub-cutaneous and oral routes and in rats by the oral route was investigated by determination of the death rate following a single administration of increasing dosages.
(§2) Symbol > means that the LD50 is not attained at the dosage indicated.

Acute toxicity in rats = conditions: rat, in vivo, po, single administration
Description: as §1, §2

[1] = system: aggressiveness subsequent to electric shocks in rats; test: Anti-aggressive: aggressiveness subsequent to electric shocks, rats; conditions: Rattus norvegicus, oral, read-out: Oral AD50, electric shock in rats
Experimental: (§3) a. aggressiveness subsequent to electric shocks in mice and rats,
(§4) In all cases, the AD50 values were determined by the oral route.

[2] = system: aggressiveness subsequent to electric shocks in mice; test: Anti-aggressive: aggressiveness subsequent to electric shocks, mice; conditions: Mus musculus, oral, read-out: Oral AD50, electric shock in mice
Experimental: as §3, §4

[3] = system: aggressiveness subsequent to apomorphine injection in rats; test: Anti-aggressive: aggressiveness subsequent to apomorphine injection, rats; conditions: Rattus norvegicus, oral, apomorphine injection 1 mg/kg, read-out: Oral AD50, apomorphine, in rats
Experimental: b. aggressiveness subsequent to apomorphine injection (1 mg/kg, in vivo) in rats,
as §4

[4] = system: aggressiveness subsequent to extended isolation in mice; test: Anti-aggressive: aggressiveness subsequent to extended isolation, mice; conditions: Mus musculus, oral, read-out: Oral AD50, isolated mice
Experimental: c. aggressiveness subsequent to extended isolation, in mice,
as §4

[5] = system: cough induced by electric stimulation of the laryngeal nerve in cats; test: Anti-tussive: cough induced by electric stimulation of the laryngeal nerve
Description: 6. Anti-tussive activity against cough induced by electric stimulation of the laryngeal nerve in cats.

[6] = system: bronchospasm induced by histamine injection in guinea-pigs; test: Anti-histaminic: bronchospasm induced by histamine injection in guinea-pigs; conditions: Cavia porcellus, oral, read-out: oral AD50, anti-histaminic activity
Experimental: This activity was determined according to the technique of the bronchospasm induced by histamine injection in guinea-pigs.

[7] = system: carrage enin-induced edema in rats; test: Anti-inflammatory: carrageenin-induced edema in rats; conditions: oral route
Experimental: The technique used was that of the carrage enin-induced edema in rats (oral route). The dosage which inhibits this edema by a factor of 50% was evaluated by interpolation.

mice = test: Acute toxicity in mice; conditions: single administration
Description: as §1, §2

rats = test: Acute toxicity in rats; conditions: single administration
Description: as §1, §2

[8] = po, read-out: LD50, oral route, mice
[9] = sc, read-out: LD50, s.c. route, mice

| Compound | LD50 (Acute toxicity in mice; [8]) | LD50 (Acute toxicity in mice; [9]) | LD50 (Acute toxicity in rats) | other results |
| --- | --- | --- | --- | --- |
| Cc1cccc(N2CCN(CCN3CCn4c3nc3c4c(=O)n(C)c(=O)n3C)CC2)c1 [Compound 1] | > 300 mg/kg | > 300 mg/kg | > 100 mg/kg | – |
| Cc1ccc(N2CCN(CCN3CCn4c3nc3c4c(=O)n(C)c(=O)n3C)CC2)cc1C [Compound 2] | > 300 mg/kg | > 300 mg/kg | > 100 mg/kg | – |
| COc1cccc(N2CCN(CCN3CCn4c3nc3c4c(=O)n(C)c(=O)n3C)CC2)c1 [Compound 3] | > 300 mg/kg | > 300 mg/kg | > 100 mg/kg | ED50 [1]: 100 mg/kg; ED50 [2]: 30 mg/kg; ED50 [3]: 180 mg/kg; ED50 [4]: 25 mg/kg |
| COc1ccc(N2CCN(CCN3CCn4c3nc3c4c(=O)n(C)c(=O)n3C)CC2)cc1 [Compound 4] | > 300 mg/kg | > 300 mg/kg | > 100 mg/kg | – |
| Cn1c(=O)c2c(nc3n2CCN3CCN2CCN(c3cccc(C(F)(F)F)c3)CC2)n(C)c1=O [Compound 5] | > 300 mg/kg | > 300 mg/kg | > 100 mg/kg | – |
| Cn1c(=O)c2c(nc3n2CCN3CCN2CCN(c3cccc(F)c3)CC2)n(C)c1=O [Compound 6] | > 300 mg/kg | > 300 mg/kg | > 100 mg/kg | – |
| Cn1c(=O)c2c(nc3n2CCN3CCN2CCN(c3ccc(F)cc3)CC2)n(C)c1=O [Compound 7] | > 300 mg/kg | > 300 mg/kg | > 100 mg/kg | – |
| Cn1c(=O)c2c(nc3n2CCN3CCN2CCN(c3cccc(Br)c3)CC2)n(C)c1=O [Compound 8] | > 300 mg/kg | > 300 mg/kg | > 100 mg/kg | – |
| Cn1c(=O)c2c(nc3n2CCN3CCN2CCN(c3cccc(I)c3)CC2)n(C)c1=O [Compound 9] | > 300 mg/kg | > 300 mg/kg | > 100 mg/kg | – |
| Cn1c(=O)c2c(nc3n2CCN3CCN2CCN(c3ccccc3Cl)CC2)n(C)c1=O [Compound 10] | > 300 mg/kg | > 300 mg/kg | > 100 mg/kg | – |
| Cn1c(=O)c2c(nc3n2CCN3CCN2CCN(c3ccc(Cl)cc3)CC2)n(C)c1=O [Compound 12] | 120 mg/kg | > 300 mg/kg | > 100 mg/kg | anti-tussive activity (in words) [5]: most active compound investigated; ED50 [6]: 1.5 mg/kg; anti-inflammatory activity (in words) [7]: the more active, the activities being substantially equivalent to those of phenyl butazone |
| Cn1c(=O)c2c(nc3n2CCN3CCN2CCN(c3cccc(Cl)c3Cl)CC2)n(C)c1=O [Compound 13] | > 300 mg/kg | > 300 mg/kg | > 100 mg/kg | – |
| Cn1c(=O)c2c(nc3n2CCN3CCN2CCN(c3ccc(Cl)c(Cl)c3)CC2)n(C)c1=O [Compound 14] | > 300 mg/kg | > 300 mg/kg | > 100 mg/kg | – |
| Cn1c(=O)c2c(nc3n2CCN3CCN2CCN(c3cc(Cl)cc(Cl)c3)CC2)n(C)c1=O [Compound 15] | > 300 mg/kg | > 300 mg/kg | > 100 mg/kg | – |
| CC(CN1CCn2c1nc1c2c(=O)n(C)c(=O)n1C)N1CCN(c2cccc(Cl)c2)CC1 (centres unmarked) [Compound 16] | > 300 mg/kg | > 300 mg/kg | > 100 mg/kg | – |
| Cn1c(=O)c2c(nc3n2CCN3CCCN2CCN(c3cccc(Cl)c3)CC2)n(C)c1=O [Compound 17] | > 300 mg/kg | > 300 mg/kg | > 100 mg/kg | – |
| CC(CN1CCCn2c1nc1c2c(=O)n(C)c(=O)n1C)N1CCN(c2cccc(Cl)c2)CC1 (centres unmarked) [Compound 19] | > 300 mg/kg | > 300 mg/kg | > 100 mg/kg | – |
| Cn1c(=O)c2c(nc3n2CCCN3CCCN2CCN(c3cccc(Cl)c3)CC2)n(C)c1=O [Compound 20] | > 300 mg/kg | > 300 mg/kg | > 100 mg/kg | anti-inflammatory activity (in words) [7]: the more active, the activities being substantially equivalent to those of phenyl butazone |
| CC1CN(CCN2CCn3c2nc2c3c(=O)n(C)c(=O)n2C)CCN1c1cccc(Cl)c1 (centres unmarked) [Compound 21] | > 300 mg/kg | > 300 mg/kg | > 100 mg/kg | – |
| CC1CN(CCN2CCn3c2nc2c3c(=O)n(C)c(=O)n2C)CCN1c1ccc(Cl)cc1 (centres unmarked) [Compound 22] | > 300 mg/kg | > 300 mg/kg | > 100 mg/kg | – |
| CCC1CN(CCN2CCn3c2nc2c3c(=O)n(C)c(=O)n2C)CCN1c1cccc(Cl)c1 (centres unmarked) [Compound 24] | 300 mg/kg | > 300 mg/kg | > 100 mg/kg | – |
| Cn1c(=O)c2c(nc3n2CCN3CCN2CCN(c3cccc(Cl)c3)C(COc3ccccc3)C2)n(C)c1=O (centres unmarked) [Compound 25] | > 300 mg/kg | > 300 mg/kg | > 100 mg/kg | – |
| Cn1c(=O)c2c(nc3n2CCCCN3CCN2CCN(c3cccc(Cl)c3)CC2)n(C)c1=O [Compound 26] | > 300 mg/kg | > 300 mg/kg | > 100 mg/kg | – |
| Cn1c(=O)c2c(nc3n2CCCCN3CCCN2CCN(c3cccc(Cl)c3)CC2)n(C)c1=O [Compound 27] | > 300 mg/kg | > 300 mg/kg | > 100 mg/kg | – |
| Cn1c(=O)c2c(nc3n2CCCN3CCCN2CCN(c3ccc(Cl)cc3)CC2)n(C)c1=O [Compound 28] | > 300 mg/kg | > 300 mg/kg | > 100 mg/kg | – |
| Cn1c(=O)c2c(nc3n2CCN3CCCCCCN2CCN(c3cccc(Cl)c3)CC2)n(C)c1=O [Compound 29] | > 300 mg/kg | > 300 mg/kg | > 100 mg/kg | – |
| Cn1c(=O)c2c(nc3n2CCCN3CCCCCCN2CCN(c3cccc(Cl)c3)CC2)n(C)c1=O [Compound 30] | > 300 mg/kg | > 300 mg/kg | > 100 mg/kg | – |
| Cn1c(=O)c2c(nc3n2CCN3CCN2CCN(c3cccc(Cl)c3)CC2)n(C)c1=O [Compound 31] | – | – | – | LD50, oral route, mice (mice; oral route): 150 mg/kg; LD50, s.c. route, mice (mice; s.c. route): > 300 mg/kg; LD50, oral route, rats (rats): > 100 mg/kg |
